We go through five molecules from US20240270810A1, “PREPARATION AND APPLICATION OF POLYPEPTIDE” (GUANGDONG RAYNOVENT BIOTECH CO., LTD., priority 2021, published 2024).

*1 amine or outer side, *2 acyl side, *3 side chain or, on linkers, in order; H or OH if unused. Where a SMILES comes first, the peptide text is derived from it. Bridges are numbered along the chain shown (N, C = ends). [ ]: non-standard residue; d: D form. X1 = O=C(O)CCCCCCCCCCCCCCCCCCC(=O)N[C@@H](CCC(=O)NCCOCCOCC(=O)NCCOCCOCC(=O)N[C@@H](CCC(=O)[*:1])C(=O)[*:2])C(=O)O; Aib = CC(C)(N)C(=O)O

In test [1] the target is T1, GIPR (Homo sapiens, UniProt P48546).
T1 construct: host or cells: CHO
T1 sequence (P48546 22-466): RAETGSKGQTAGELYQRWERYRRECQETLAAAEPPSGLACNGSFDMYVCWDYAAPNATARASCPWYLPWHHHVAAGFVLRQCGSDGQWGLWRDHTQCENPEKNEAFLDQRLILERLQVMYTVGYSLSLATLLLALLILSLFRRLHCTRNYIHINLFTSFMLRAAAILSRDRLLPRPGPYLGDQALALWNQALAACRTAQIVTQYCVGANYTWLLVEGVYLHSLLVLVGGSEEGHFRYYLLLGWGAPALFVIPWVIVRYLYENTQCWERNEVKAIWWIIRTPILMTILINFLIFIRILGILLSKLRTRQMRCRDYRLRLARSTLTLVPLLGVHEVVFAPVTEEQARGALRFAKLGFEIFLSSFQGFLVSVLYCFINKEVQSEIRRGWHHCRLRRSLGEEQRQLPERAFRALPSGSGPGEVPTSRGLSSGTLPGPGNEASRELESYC
The experiment in a line: In vitro GIPR agonistic activity test (cAMP kit). It is filed as cell-based. Conditions: CHO host cells, without 1% HSA. The procedure:
The cell lines were constructed by Wuxi […] (Shanghai) Co., Ltd. See details in Table 1 below. […] The test compounds were diluted at a 4-fold dilution factor in 10 points, starting from an initial concentration of 30 μM. The dilution was carried out by Bravo. • 1) 100 nL of compounds were transferred to an OptiPlate-384 plate by Echo. • 2) The OptiPlate-384 plate was centrifuged at 1000 rpm for 5 s. • 1) A GLP-1R/GIPR cell cryovial was placed in warm water at 37° C. for rapid thawing. • 2) The cell suspension was transferred into a 15 mL Transfer centrifugal tube and rinsed with 10 mL of HBSS gently. • 3) The centrifugal tube was centrifuged at 1000 rpm at room temperature for 1 min. • 4) The supernatant was discarded. • 5) The bottom cells were gently dispersed, then gently rinsed with 10 mL of HBSS, the centrifugal tube was centrifuged to settle the cells, and finally the cells were resuspended in an experimental buffer. • 6) Cell density and viability were measured by Vi-cell. • 7) The GLP-1R/GIPR cells were diluted with the experimental buffer to a concentration of 2.0*10^5/mL. • 8) […] of the diluted cell suspension was transferred into the OptiPlate-384 plate. • 9) Incubation was performed at room temperature for 30 min. • 1) 10 μL of 800 nM gradient diluted cAMP standard was added into the empty wells of the OptiPlate-384 plate. • 2) 10 μL of cAMP assay reagent was added. • 3) The OptiPlate-384 plate was covered with TopSeal-A film and incubated at room temperature for 60 min. The TopSeal-A film was removed, and readout was performed on En Vision.

Test [2] has as its target T2, GLP-1R (Homo sapiens, UniProt P43220).
T2 construct: host or cells: HEK293
The experiment in a line: In vitro GLP-1R agonistic activity test (cAMP kit). It is filed as cell-based. The following applies: HEK293 host cells, without 1% HSA. The protocol:
The cell lines were constructed by Wuxi […] (Shanghai) Co., Ltd. See details in Table 1 below. [table] [table] The test compounds were diluted at a 4-fold dilution factor in 10 points, starting from an initial concentration of 30 μM. The dilution was carried out by Bravo. • 1) 100 nL of compounds were transferred to an OptiPlate-384 plate by Echo. • 2) The OptiPlate-384 plate was centrifuged at 1000 rpm for 5 s. • 1) A GLP-1R/GIPR cell cryovial was placed in warm water at 37° C. for rapid thawing. • 2) The cell suspension was transferred into a 15 mL Transfer centrifugal tube and rinsed with 10 mL of HBSS gently. • 3) The centrifugal tube was centrifuged at 1000 rpm at room temperature for 1 min. • 4) The supernatant was discarded. • 5) The bottom cells were gently dispersed, then gently rinsed with 10 mL of HBSS, the centrifugal tube was centrifuged to settle the cells, and finally the cells were resuspended in an experimental buffer. • 6) Cell density and viability were measured by Vi-cell. • 7) The GLP-1R/GIPR cells were diluted with the experimental buffer to a concentration of 2.0*10^5/mL. • 8) […] of the diluted cell suspension was transferred into the OptiPlate-384 plate. • 9) Incubation was performed at room temperature for 30 min. • 1) 10 μL of 800 nM gradient diluted cAMP standard was added into the empty wells of the OptiPlate-384 plate. • 2) 10 μL of cAMP assay reagent was added. • 3) The OptiPlate-384 plate was covered with TopSeal-A film and incubated at room temperature for 60 min. The TopSeal-A film was removed, and readout was performed on En Vision.

For test [3], the target named is T3, GIPR (UniProt P48546 22-466, limits assumed).
T3 sequence (looked up): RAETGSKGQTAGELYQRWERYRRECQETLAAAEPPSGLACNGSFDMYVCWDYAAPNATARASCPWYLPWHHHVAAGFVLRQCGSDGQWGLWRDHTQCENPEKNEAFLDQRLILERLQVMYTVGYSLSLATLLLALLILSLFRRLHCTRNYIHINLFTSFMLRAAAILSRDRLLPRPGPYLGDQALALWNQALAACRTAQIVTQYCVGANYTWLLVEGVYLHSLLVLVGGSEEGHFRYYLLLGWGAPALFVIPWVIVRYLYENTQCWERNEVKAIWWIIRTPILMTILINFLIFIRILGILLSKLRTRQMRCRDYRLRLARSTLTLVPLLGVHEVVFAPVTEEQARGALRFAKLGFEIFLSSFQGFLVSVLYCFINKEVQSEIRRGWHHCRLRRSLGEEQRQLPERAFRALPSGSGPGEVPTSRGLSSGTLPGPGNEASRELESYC
The experiment in a line: cell-based or functional assay.

Test [4] addresses GLP-1R (UniProt P43220 24-463, limits assumed). The experiment in a line: cell-based or functional assay.

T2 sequence (P43220 24-463, species assumed): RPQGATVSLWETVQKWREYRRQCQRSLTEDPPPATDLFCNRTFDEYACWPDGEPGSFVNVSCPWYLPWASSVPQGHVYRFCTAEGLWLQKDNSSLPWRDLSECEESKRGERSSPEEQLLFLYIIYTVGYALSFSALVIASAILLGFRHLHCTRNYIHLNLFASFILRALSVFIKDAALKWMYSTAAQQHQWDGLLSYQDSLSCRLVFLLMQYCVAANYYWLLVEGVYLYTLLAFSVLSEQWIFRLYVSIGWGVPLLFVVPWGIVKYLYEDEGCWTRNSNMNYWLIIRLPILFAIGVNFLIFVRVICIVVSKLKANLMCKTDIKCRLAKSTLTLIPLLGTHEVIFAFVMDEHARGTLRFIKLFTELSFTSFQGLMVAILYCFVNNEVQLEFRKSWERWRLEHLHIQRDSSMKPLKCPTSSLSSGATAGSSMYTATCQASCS

As usually defined, the EC50 is the concentration at which the effect is half-maximal. Higher therefore signals weaker potency. Regarding `CC[C@H](C)[C@H](NC(=O)[C@H](CC(C)C)NC(=O)[C@H](Cc1c[nH]c2ccccc12)NC(=O)[C@H](CCC(=O)O)NC(=O)[C@@H](NC(=O)[C@H](Cc1ccccc1)NC(=O)[C@H](C)NC(=O)[C@@H]1CCCCNC(=O)[C@@H](NC(=O)COCCOCCNC(=O)COCCOCCNC(=O)CC[C@H](NC(=O)CCCCCCCCCCCCCCCCCCC(=O)O)C(=O)O)CCC(=O)NCCCC[C@H](NC(=O)[C@H](CCCCN)NC(=O)[C@H](CC(=O)O)NC(=O)[C@H](CC(C)C)NC(=O)C(C)(C)NC(=O)[C@@H](NC(=O)[C@H](CO)NC(=O)[C@H](Cc2ccc(O)cc2)NC(=O)[C@H](CC(=O)O)NC(=O)[C@H](CO)NC(=O)[C@@H](NC(=O)[C@H](Cc2ccccc2)NC(=O)[C@@H](NC(=O)CNC(=O)[C@H](CCC(=O)O)NC(=O)C(C)(C)NC(=O)[C@@H](N)Cc2ccc(O)cc2)[C@@H](C)O)[C@@H](C)O)[C@@H](C)CC)C(=O)N[C@@H](C)C(=O)N[C@@H](CCC(N)=O)C(=O)N1)C(C)C)C(=O)N[C@@H](C)C(=O)NCC(=O)NCC(=O)N1CCC[C@H]1C(=O)N[C@@H](CO)C(=O)N[C@@H](CO)C(=O)NCC(=O)N[C@@H](C)C(=O)N1CCC[C@H]1C(=O)N1CCC[C@H]1C(=O)N1CCC[C@H]1C(=O)N[C@@H](CO)C(N)=O` [WX-011] (H-Y[Aib]EGTFTSDYSI[Aib]LDKKAQKAFVEWLIAGGPSSGAPPPS-NH2; linker 17-20 via X1), the EC50 at GIPR [1] came out at 0.25 nM; on GLP-1R [2], 0.018 nM.
Taken in the same sequence, the figures for `CC[C@H](C)[C@H](NC(=O)[C@H](CC(C)C)NC(=O)[C@H](Cc1c[nH]c2ccccc12)NC(=O)[C@H](CCC(=O)O)NC(=O)[C@@H](NC(=O)[C@H](Cc1ccccc1)NC(=O)[C@H](C)NC(=O)[C@@H]1CCCCNC(=O)CN(C(=O)COCCOCCNC(=O)COCCOCCNC(=O)CC[C@H](NC(=O)CCCCCCCCCCCCCCCCC(=O)O)C(=O)O)CC(=O)NCCCC[C@H](NC(=O)[C@H](CCCCN)NC(=O)[C@H](CC(=O)O)NC(=O)[C@H](CC(C)C)NC(=O)C(C)(C)NC(=O)[C@@H](NC(=O)[C@H](CO)NC(=O)[C@H](Cc2ccc(O)cc2)NC(=O)[C@H](CC(=O)O)NC(=O)[C@H](CO)NC(=O)[C@@H](NC(=O)[C@H](Cc2ccccc2)NC(=O)[C@@H](NC(=O)CNC(=O)[C@H](CCC(=O)O)NC(=O)C(C)(C)NC(=O)[C@@H](N)Cc2ccc(O)cc2)[C@@H](C)O)[C@@H](C)O)[C@@H](C)CC)C(=O)N[C@@H](C)C(=O)N[C@@H](CCC(N)=O)C(=O)N1)C(C)C)C(=O)N[C@@H](C)C(=O)NCC(=O)NCC(=O)N1CCC[C@H]1C(=O)N[C@@H](CO)C(=O)N[C@@H](CO)C(=O)NCC(=O)N[C@@H](C)C(=O)N1CCC[C@H]1C(=O)N1CCC[C@H]1C(=O)N1CCC[C@H]1C(=O)N[C@@H](CO)C(N)=O` [WX-012] were 0.17 nM and 0.024 nM.
Regarding `CC[C@H](C)[C@H](NC(=O)[C@H](CC(C)C)NC(=O)[C@H](Cc1c[nH]c2ccccc12)NC(=O)[C@H](CCC(=O)O)NC(=O)[C@@H](NC(=O)[C@H](Cc1ccccc1)NC(=O)[C@H](C)NC(=O)[C@@H]1CCCCNC(=O)CN(C(=O)COCCOCCNC(=O)COCCOCCNC(=O)CC[C@H](NC(=O)CC[C@H](NC(=O)CCCCCCCCCCCCCCCCCCC(=O)O)C(=O)O)C(=O)O)CC(=O)NCCCC[C@H](NC(=O)[C@H](CCCCN)NC(=O)[C@H](CC(=O)O)NC(=O)[C@H](CC(C)C)NC(=O)C(C)(C)NC(=O)[C@@H](NC(=O)[C@H](CO)NC(=O)[C@H](Cc2ccc(O)cc2)NC(=O)[C@H](CC(=O)O)NC(=O)[C@H](CO)NC(=O)[C@@H](NC(=O)[C@H](Cc2ccccc2)NC(=O)[C@@H](NC(=O)CNC(=O)[C@H](CCC(=O)O)NC(=O)C(C)(C)NC(=O)[C@@H](N)Cc2ccc(O)cc2)[C@@H](C)O)[C@@H](C)O)[C@@H](C)CC)C(=O)N[C@@H](C)C(=O)N[C@@H](CCC(N)=O)C(=O)N1)C(C)C)C(=O)N[C@@H](C)C(=O)NCC(=O)NCC(=O)N1CCC[C@H]1C(=O)N[C@@H](CO)C(=O)N[C@@H](CO)C(=O)NCC(=O)N[C@@H](C)C(=O)N1CCC[C@H]1C(=O)N1CCC[C@H]1C(=O)N1CCC[C@H]1C(=O)N[C@@H](CO)C(N)=O` [WX-013], the figures for the EC50 at GIPR [1] and on GLP-1R [2] were 0.18 nM and 0.057 nM, respectively.
Turning to `CC[C@H](C)[C@H](NC(=O)[C@H](CC(C)C)NC(=O)[C@H](Cc1c[nH]c2ccccc12)NC(=O)[C@H](CCC(=O)O)NC(=O)[C@@H](NC(=O)[C@H](Cc1ccccc1)NC(=O)[C@H](C)NC(=O)[C@@H]1CCCCNC(=O)CN(C(=O)COCCOCCNC(=O)COCCOCCNC(=O)CC[C@H](NC(=O)CC[C@H](NC(=O)CCCCCCCCCCCCCCCCC(=O)O)C(=O)O)C(=O)O)CC(=O)NCCCC[C@H](NC(=O)[C@H](CCCCN)NC(=O)[C@H](CC(=O)O)NC(=O)[C@H](CC(C)C)NC(=O)C(C)(C)NC(=O)[C@@H](NC(=O)[C@H](CO)NC(=O)[C@H](Cc2ccc(O)cc2)NC(=O)[C@H](CC(=O)O)NC(=O)[C@H](CO)NC(=O)[C@@H](NC(=O)[C@H](Cc2ccccc2)NC(=O)[C@@H](NC(=O)CNC(=O)[C@H](CCC(=O)O)NC(=O)C(C)(C)NC(=O)[C@@H](N)Cc2ccc(O)cc2)[C@@H](C)O)[C@@H](C)O)[C@@H](C)CC)C(=O)N[C@@H](C)C(=O)N[C@@H](CCC(N)=O)C(=O)N1)C(C)C)C(=O)N[C@@H](C)C(=O)NCC(=O)NCC(=O)N1CCC[C@H]1C(=O)N[C@@H](CO)C(=O)N[C@@H](CO)C(=O)NCC(=O)N[C@@H](C)C(=O)N1CCC[C@H]1C(=O)N1CCC[C@H]1C(=O)N1CCC[C@H]1C(=O)N[C@@H](CO)C(N)=O` [WX-014], the EC50 at GIPR [1] amounted to 0.24 nM; at GLP-1R [2], 0.071 nM.

B1: polypeptide compound WX-001 (peptide)
peptide: YXEGTFTSDYSIXLDKIAQKAFIKWLIAGGPSSGAPPPS
modifications: Aib at positions 2 and 13; C-terminal amide (-NH2); side-chain amino groups of Lys 20 and Lys 24 bridged by iminodiacetic acid (from Fmoc-Ida-OH) whose nitrogen carries Intermediate A-1 (fatty acid side chain, structure only in a drawing)
Consider B1, for which, in the test with GIPR [3], the “EC50 (nM), cAMP assay on GIPR CHO cells, (+) 1% HSA” value came to 16 nM; the “EC50 (nM), cAMP assay on GIPR CHO cells, (-) 1% HSA” value was determined as 0.324 nM; the “Ratio of EC50 (+) 1% HSA to (-) 1% HSA, cAMP assay” value came out at 49.3. In addition, in the test with GLP-1R [4], the “EC50 (nM), cAMP assay on GLP-1R HEK293 cells, (+) 1% HSA” value turned out to be 16.6 nM; the “EC50 (nM), cAMP assay on GLP-1R HEK293 cells, (-) 1% HSA” value turned out to be 0.0596 nM; the “Ratio of EC50 (+) 1% HSA to (-) 1% HSA, cAMP assay” value was 279.
